Values of other authors, collected in patent US20250092340A1, “METHOD FOR INDUSTRIALLY PRODUCING MOGROSIDE, FRUCTUS MOMORDICAE SUGAR/WINE AND MANNITOL FROM FRESH FRUCTUS MOMORDICAE” (priority 2022, published 2025).

Details: background statement

Row | SMILES | sweetness relative to sucrose
1 | C[C@H](CC[C@@H](O[C@@H]1O[C@H](CO)[C@@H](O)[C@H](O)[C@H]1O[C@@H]1O[C@H](CO)[C@@H](O)[C@H](O)[C@H]1O)C(C)(C)O)[C@H]1CC[C@@]2(C)[C@H]3CC=C4[C@@H](CC[C@H](O[C@@H]5O[C@H](CO[C@@H]6O[C@H](CO)[C@@H](O)[C@H](O)[C@H]6O)[C@@H](O)[C@H](O)[C@H]5O)C4(C)C)[C@]3(C)[C@H](O)C[C@]12C [mogroside IV] | 126 folds of that of sucrose
2 | C[C@H](CC[C@@H](O[C@@H]1O[C@H](CO[C@@H]2O[C@H](CO)[C@@H](O)[C@H](O)[C@H]2O)[C@@H](O)[C@H](O)[C@H]1O[C@@H]1O[C@H](CO)[C@@H](O)[C@H](O)[C@H]1O)C(C)(C)O)[C@H]1CC[C@@]2(C)[C@@H]3CC=C4[C@@H](CC[C@H](O[C@@H]5O[C@H](CO[C@@H]6O[C@H](CO)[C@@H](O)[C@H](O)[C@H]6O)[C@@H](O)[C@H](O)[C@H]5O)C4(C)C)[C@]3(C)[C@H](O)C[C@]12C [mogroside V] | 256-344 folds of that of sucrose
